The text below walks through data of patent US20050159460A1, “Peptide isosteres containing a heterocycle useful in the treatment of alzheimer's disease” (Elan Pharmaceuticals, priority 2001, published 2005).

The structures appear in SMILES notation.

For the compound `CC(C)(C)OC(=O)[C@@H](C(N)c1ccccc1)[C@@H](O)C[C@@H](Cc1ccccc1)c1ncc2n1C(O)C(C)(C)C2=O` (stereo partly drawn) [Example 31, 3-[(1R,3S,4S)-1-benzyl-4-t-butoxycarbonyl-amino-3-hydroxy-5-phenylpentyl]-6,6-dimethyl-5-hydroxy-pyrrolo-[1,2-c]-imidazol-7-one], the melting point lay in the range of 88 to 90 °C.
